Each structure is given as a SMILES string. Where two headings read alike, the source gives them in different places.

Data set [1] has as its target T1, cannabinoid CB1 receptor (Mus musculus, UniProt P47746).
T1 construct: from tissue; host or cells: whole animal (mice; male CD1 mice in the gastrointestinal transit model)
The data set is described as follows: model of inhibition of gastrointestinal transit induced by racemic CP55,940 in mice. The data set is classed as in vivo. The note with it: 1 mg/kg per os; 3 hours after administration of the product; CP55,940 0.15 mg/kg ip; male CD1 mice. How it is done: The antagonistic activity of the compounds was also shown by means of the model of inhibition of gastrointestinal transit induced by racemic CP55,940 (1RS,3RS,4RS-3-[hydroxy-2-(1,1-dimethylheptyl)phenyl]-4-(3-hydroxypropyl)cyclohexan-1-ol) in mice, according to the method described by Rinaldi-Carmona et al., J. Pharmacol, Exp. Ther. 2004, 310, 905-914. Briefly, male CD1 mice receive the test product per os 30 minutes or 2 hours before administration of the racemic CP55,940 agonist (1RS,3RS,4RS-3-[hydroxy-2-(1,1-dimethylheptyl)phenyl]-4-(3-hydroxypropyl)cyclohexan-1-ol) (0.15 mg/kg ip in 10% Cremophor). After a further 30 minutes, the animals receive a charcoal bolus po. Thirty minutes later, the animals are euthanized (CO2/O2) and the intestine is dissected. The progression of the charcoal bolus in the intestine is expressed as percentage of the total length of the intestine.

Data set [2] concerns the target T2, human CB1 receptor (Homo sapiens, UniProt P21554).
T2 construct: U373MG cells naturally expressing the human CB1 receptor; endogenous in cells; host or cells: U373MG cells
Kind of data set: intracellular cyclic AMP test in U373MG cells (HTRF cAMP Dynamic Kit). The data set is classed as cell-based. How it is done: The compounds according to the invention were the subject of pharmacological tests for determining the activity with respect to human cannabinoid CB1-type receptors. The efficacy of the compounds of formula (I) was determined in a functional test which measures cannabinoid CB1 receptor activity (intracellular cyclic AMP test). The test for detecting intracellular cyclic AMP in U373MG cells naturally expressing the human CB1 receptor was carried out as described in the following reference: Bouaboula et al., 1995, J. Biol. Chem. 270:13973-13980. The HTRF cAMP Dynamic Kit from CisBio was used to quantify the intracellular cyclic AMP. In this test, the IC50 values are between 0.001 μM and 2 μM.
A general note: In TR-FRET formats the signal depends on donor and acceptor labels being close together.

Data set [3] deals with T1, cannabinoid CB1 receptor. The data set is described as follows: model of hypothermia induced by cannabinoid CB1 receptor agonist racemic CP55,940 in mice. The data set is classed as in vivo. The note with it: 3 mg/kg po, hypothermia induced by CP55,940 1.25 mg/kg. How it is done:
Other tests consisting in measuring the in vivo activity of the compounds of the invention were carried out. The antagonist activity of said compounds was shown by means of the model of hypothermia induced by a cannabinoid CB1 receptor agonist (racemic CP55,940 (1RS,3RS,4RS)-3-[hydroxy-2-(1,1-dimethylheptyl)phenyl]-4-(3-hydroxypropypcyclohexan-1-ol) at a dose of 1.25 mg/kg, in mice, according to the method described by R. G. Pertwee in Marijuana 84, Harvey D. J. eds, Oxford IRL Press, 263-277 (1985).

T1 sequence (P47746 whole entry): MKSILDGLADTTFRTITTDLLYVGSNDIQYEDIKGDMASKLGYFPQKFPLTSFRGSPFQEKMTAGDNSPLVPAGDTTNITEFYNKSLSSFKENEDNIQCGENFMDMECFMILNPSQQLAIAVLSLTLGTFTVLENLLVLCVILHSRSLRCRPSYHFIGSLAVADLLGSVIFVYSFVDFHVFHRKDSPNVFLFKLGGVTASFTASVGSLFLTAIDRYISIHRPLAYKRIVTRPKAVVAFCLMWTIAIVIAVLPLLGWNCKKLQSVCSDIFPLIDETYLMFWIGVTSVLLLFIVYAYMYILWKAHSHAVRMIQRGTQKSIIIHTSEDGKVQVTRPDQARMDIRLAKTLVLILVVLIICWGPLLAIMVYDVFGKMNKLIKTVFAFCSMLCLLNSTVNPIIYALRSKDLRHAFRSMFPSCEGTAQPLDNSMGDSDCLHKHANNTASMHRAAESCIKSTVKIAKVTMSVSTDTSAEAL
T2 sequence (P21554 whole entry): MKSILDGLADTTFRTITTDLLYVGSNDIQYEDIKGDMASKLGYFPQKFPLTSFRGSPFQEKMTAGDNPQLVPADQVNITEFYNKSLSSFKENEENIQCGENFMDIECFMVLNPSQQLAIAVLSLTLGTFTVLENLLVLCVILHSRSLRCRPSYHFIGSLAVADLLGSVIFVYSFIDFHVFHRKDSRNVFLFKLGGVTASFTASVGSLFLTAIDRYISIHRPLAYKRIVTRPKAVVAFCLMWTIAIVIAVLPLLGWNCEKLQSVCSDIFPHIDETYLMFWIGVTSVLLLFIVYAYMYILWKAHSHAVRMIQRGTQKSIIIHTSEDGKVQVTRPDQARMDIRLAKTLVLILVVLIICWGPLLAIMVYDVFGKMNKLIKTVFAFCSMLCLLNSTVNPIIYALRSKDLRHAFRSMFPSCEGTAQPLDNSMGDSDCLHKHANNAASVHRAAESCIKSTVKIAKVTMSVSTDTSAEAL

Turning to `CS(=O)(=O)N(c1cc(F)cc(C(=O)NCc2ccc(=O)[nH]c2)c1)C1CN(C(c2ccc(Cl)cc2)c2ccc(Cl)cc2)C1` [Compound 47], the percentages of inhibition in data set [1] is recorded as 68%. This molecule showed an IC50 in data set [2] of 9 nM.
Take `CS(=O)(=O)N(c1cccc(C(=O)Nc2ccon2)c1)C1CN(C(c2ccc(Cl)cc2)c2ccc(Cl)cc2)C1` [Compound 5, 3-[{1-[bis(4-chlorophenyl)methyl]azetidin-3-yl}(methylsulphonyl)amino]-N-(isoxazol-3-yl)-benzamide]: the melting point amounted to 218 °C. The molecule also had a percentage inhibition in data set [3] of 28%. The same molecule returned a percentages of inhibition in data set [1] of 82%. Further, in data set [2] (U373MG cells naturally expressing the human CB1 receptor, intracellular cyclic AMP, read-out: IC50), the IC50 was 6 nM.
`CS(=O)(=O)N(c1cccc(C(=O)Nc2ccccn2)c1)C1CN(C(c2ccc(Cl)cc2)c2ccc(Cl)cc2)C1` [Compound 7, 3-[{1-[Bis(4-chlorophenyl)methyl]azetidin-3-yl}(methylsulphonyl)amino]-N-(pyridin-2-yl)benzamide] yielded a melting point of 202 °C. Also, the percentage inhibition in data set [3] stood at 32%. The molecule also returned a percentages of inhibition in data set [1] of 68%.

One may read the IC50 as the concentration that inhibits the measured activity by half. A word on the melting point: it is the temperature, or range, at which the solid turns liquid.

Source of the values: patent US20110152236A1 (SANOFI-AVENTIS, priority 2008, published 2011).
